{"source": "patent US5574008A", "about": "“Biologically active fragments of glucagon-like insulinotropic peptide” (Eli Lilly and Company, priority 1994, dated 1996)", "system": "fasted normal Sprague-Dawley rats", "experiment": "In vivo hyperglycemic clamp assay (glucose up-take assay)", "set-up": "species or system rat", "details": "200 mg/dl plasma glucose clamp, 0.3 nmol/kg iv bolus at 60 min", "from_the_text": "In vivo Hyperglycemic Clamp Assay (Glucose Up-take Assay) Male Sprague-Dawley rats (Charles Rivers) weighing about 350 grams were allowed to acclimate to their surroundings for a week after which they were cannulated under isoflurane inhalation anesthetic. Two catheters were implanted into the jugular vein for infusions of glucose and GLP-1 fragment. Another catheter was implanted into the carotid artery for sampling blood. The catheters were exteriorized through the skin at the vertex of the head, filled with a glycerol/heparin solution (30 ml glycerol/10 ml heparin from a 1000 u/ml stock solution), and closed off with a one centimeter stainless steel plug. The rats were housed individually in wire mesh cages and were fed ad libitum on a standard rat chow diet. Each animal was given at least one week to recover from surgery before testing any GLP-1 fragments for biological activity. The rats were fasted overnight; on the morning of the experiment, sampling tubes were connected to the indwelling catheters, and the tubes were enclosed in a light weight stainless steel spring for protection. The rats were acclimated to their cages for 15 minutes. All experiments were carried out in conscious, free moving rats. A basal blood sample was taken for measurement of insulin and glucose levels at time zero on the timer. The rats were then given a bolus of 20% dextrose to raise plasma glucose to either 150 mg/dl (8.3 mM) or 200 mg/dl (11.2 mM). Plasma glucose levels were maintained at the chosen level by measuring plasma glucose levels approximately every 5 minutes and adjusting the calibrated variable infusion pump as needed to maintain the established blood glucose levels. Blood samples were collected at 45 and 60 minutes for the control period measurements. At 60 minutes into the clamp, 0.3 nmol/kg of the experimental GLP-1 fragment was injected via the jugular vein catheter and flushed with saline. […] The blood samples were centrifuged in a micro centrifuge to separate the plasma component. Plasma glucose was measured on a Beckman Glucose analyzer II using the glucose oxidase method. Plasma insulin was determined by standard radio immunoassay as per the manufacturer's directions (Diagnostic Products Corp.). The activity of the GLP-1 fragment was determined by the percentage change in glucose infusion rate and change in insulin secreted. These two parameters were compared to control rats that received only diluent. Note: This assay is based on reports that GLP-1 insulinotropic action is glucose dependent. The assay protocol eliminates variability due to falling glucose levels in other protocols using the \"bolus\" method. The hyperglycemic clamp involved administration of variable amounts of glucose (20% dextrose) to maintain glucose at a constant level of 8.3 or 11.2 mM in fasted normal Sprague-Dawley rats. The hyperglycemic clamp is maintained for 1 hour after which the GLP-1 fragment is injected as a bolus through the jugular vein. […] The glucose infusion rate (GIR) in the last 15 minutes of the control period and after the injection of the peptide is calculated. The activity of the peptide is determined by the increase in glucose infusion rate and change in insulin secreted after the injection of the peptide."}
{"smiles": "CC[C@H](C)[C@H](NC(=O)[C@H](Cc1ccccc1)NC(=O)[C@H](CCC(=O)O)NC(=O)[C@H](CCCCN)NC(=O)[C@H](C)NC(=O)[C@H](C)NC(=O)[C@H](CCC(N)=O)NC(=O)CNC(=O)[C@H](CCC(=O)O)NC(=O)[C@H](CC(C)C)NC(=O)[C@H](Cc1ccc(O)cc1)NC(=O)[C@H](CO)NC(=O)[C@H](CO)NC(=O)[C@@H](NC(=O)[C@H](CC(=O)O)NC(=O)[C@H](CO)NC(=O)[C@@H](NC(=O)[C@H](Cc1ccccc1)NC(=O)[C@@H](NC(=O)CNC(=O)[C@@H](N)CCC(=O)O)[C@@H](C)O)[C@@H](C)O)C(C)C)C(=O)N[C@@H](C)C(=O)N[C@@H](Cc1c[nH]c2ccccc12)C(=O)N[C@@H](CC(C)C)C(=O)N[C@H](C(=O)N[C@@H](CCCCN)C(=O)NCC(=O)N[C@@H](CCCNC(=N)N)C(N)=O)C(C)C", "note": "[GLP-1(9-36)NH2]", "values": [{"measurement": "% Change in GIR", "setting": "time 60 min", "result": 21.936, "unit": "%"}, {"measurement": "Plasma Insulin Change", "setting": "time 60 min", "result": 2.429, "unit": "ng/mL"}, {"measurement": "% Change in GIR", "setting": "time 62 min", "result": -1.287, "unit": "%"}, {"measurement": "Plasma Insulin Change", "setting": "time 62 min", "result": -0.521, "unit": "ng/mL"}, {"measurement": "% Change in GIR", "setting": "time 64 min", "result": 0.635, "unit": "%"}, {"measurement": "Plasma Insulin Change", "setting": "time 64 min", "result": -0.765, "unit": "ng/mL"}, {"measurement": "% Change in GIR", "setting": "time 66 min", "result": 10.697, "unit": "%"}, {"measurement": "Plasma Insulin Change", "setting": "time 66 min", "result": -0.637, "unit": "ng/mL"}, {"measurement": "% Change in GIR", "setting": "time 68 min", "result": 24.584, "unit": "%"}, {"measurement": "Plasma Insulin Change", "setting": "time 68 min", "result": -0.662, "unit": "ng/mL"}, {"measurement": "% Change in GIR", "setting": "time 70 min", "result": 46.387, "unit": "%"}, {"measurement": "Plasma Insulin Change", "setting": "time 70 min", "result": -0.274, "unit": "ng/mL"}, {"measurement": "% Change in GIR", "setting": "time 75 min", "result": 61.185, "unit": "%"}, {"measurement": "Plasma Insulin Change", "setting": "time 75 min", "result": 0.138, "unit": "ng/mL"}, {"measurement": "% Change in GIR", "setting": "time 80 min", "result": 48.254, "unit": "%"}, {"measurement": "Plasma Insulin Change", "setting": "time 80 min", "result": -0.390, "unit": "ng/mL"}, {"measurement": "% Change in GIR", "setting": "time 85 min", "result": 34.689, "unit": "%"}, {"measurement": "Plasma Insulin Change", "setting": "time 85 min", "result": 0.064, "unit": "ng/mL"}, {"measurement": "% Change in GIR", "setting": "time 90 min", "result": 17.272, "unit": "%"}, {"measurement": "Plasma Insulin Change", "setting": "time 90 min", "result": -0.361, "unit": "ng/mL"}, {"measurement": "% Change in GIR", "setting": "time 100 min", "result": 7.537, "unit": "%"}, {"measurement": "Plasma Insulin Change", "setting": "time 100 min", "result": -0.743, "unit": "ng/mL"}, {"measurement": "% Change in GIR", "setting": "time 110 min", "result": -0.920, "unit": "%"}, {"measurement": "Plasma Insulin Change", "setting": "time 110 min", "result": -0.824, "unit": "ng/mL"}, {"measurement": "% Change in GIR", "setting": "time 120 min", "result": 4.716, "unit": "%"}, {"measurement": "Plasma Insulin Change", "setting": "time 120 min", "result": -0.880, "unit": "ng/mL"}, {"measurement": "% Change in GIR", "setting": "time 130 min", "result": 3.818, "unit": "%"}, {"measurement": "Plasma Insulin Change", "setting": "time 130 min", "result": -0.653, "unit": "ng/mL"}, {"measurement": "% Change in GIR", "setting": "time 140 min", "result": -6.783, "unit": "%"}, {"measurement": "Plasma Insulin Change", "setting": "time 140 min", "result": -0.927, "unit": "ng/mL"}, {"measurement": "% Change in GIR", "setting": "time 150 min", "result": 1.333, "unit": "%"}, {"measurement": "Plasma Insulin Change", "setting": "time 150 min", "result": -0.450, "unit": "ng/mL"}]}
